Test results as given in patent US20060148767A1, “Use of acyl salicylates as heat shock inducers” (priority 2001, published 2006).

Tests used:
[1] = tested on: Hsp70; experiment: Heat shock response in NHEK cells, Hsp70 ELISA; assay type: cell-based; conditions: NHEK keratinocytes, 18 hours at 37° C., no heat shock
Method: Acetyl, propanoyl, n-butanoyl, n-octanoyl and n-decanoyl salicylates, synthesized according to Example 1 or 2, were tested for their ability to induce heat shock response in an in vitro system using cells NHEK.
NHEK cells, grown at 37° C. to 75% confluence, were treated with different doses of propanoyl, n-butanoyl, n-octanoyl and n-decanoyl salicylates at a concentration range from 0 to 50 μM, using 50 mM sorbitol and heat shock at 42° C. as positive controls. After incubation for 18 hours at 37° C., Hsp70 levels were quantitatively determined on keratinocytes using the ELISA kit by StressGen.

[2] = tested on: human Hsp70 promoter; experiment: Heat shock induction in L 929 fibroblast cells, luciferase under human Hsp70 promoter; assay type: cell-based, mouse; conditions: for increase of heat shock response with respect to the control: 37° C.; for increase of heat shock response compared with the control: 40° C.
Method: Acetyl, propanoyl, n-butanoyl, n-octanoyl and n-decanoyl salicylates were tested for their ability to induce heat shock response in an in vitro system using L 929 fibroblast cells, in which the enzyme luciferase was cloned under the transcriptional control of the human Hsp70 promoter (Proc. Natl. Acad. Sci USA, 92, 7207-7211, 1995). The effects of the mentioned compounds on heat shock induction at different temperatures have been compared using Bimoclomol as reference compound (Table 1). As reported in Table 1, propanoyl salicylate and Bimoclomol at 37° C. increase the heat shock response by 33% with respect to the control, while n-butanoyl, n-octanoyl and n-decanoyl salicylates increase it up to 67%. […] (Nature Medicine, 3, 1150-1154, 1997).

[3] = tested on: UV-B induced erythema; experiment: Prevention and repair of UV-B induced skin damage; assay type: in vivo; conditions: guinea pigs, topical; untreated: erythema observed four hours after irradiation
Method: The effect of acyl-salicylates in the prevention and repair of UV-B induced skin damage was determined with an in vivo test, on female Hartley albino guinea pigs, using the propanoyl salicylate as model compound. The animals, that weighed about 400 g, were shaved with a commercial cream 24 h before irradiation. Propanoyl salicylate was applied 120 minutes before irradiation on the head distal area, on a 5 cm^2 rectangular area at a dose of about 2 mg/cm^2, the head proximal area serving as control site. A bank of four lamps providing a mean irradiation of about 1.2 mW/cm^2 at 310 nm was used as UV-B source. Following light exposure, sites were occluded with a cotton pad. The erythema following UV-B exposure was evaluated according to the following scale: not irradiated, 0, pale pink; slight erythema, 1, pink; moderate erythema, 2, intense pink; severe erythema, 3, intense pink, edema; ulcerated erythema, 4, intense pink, ulceration. One MED (minimal erythemal dose to obtain an erythema grade 1) for untreated animals corresponds to 5 minutes exposure at 400 mJ/cm^2. The protection effect was calculated as the ratio of protected skin MED to unprotected skin MED.

[4] = Stability as crystalline compound and in solution; assay type: physicochemical
Method: The mixture was stirred at room temperature for 30 minutes and kept at 70° C. for 2 hours. The reaction mixture was poured into ice water and the precipitated product was filtered in vacuo, dried and recrystallized tree times from toluene or ethanol as solvent. […] The ^1H-NMR spectrum of the synthesized propanoyl salicylate is consistent with the proposed structure.

[5] = molecular target: heat shock transcription factor (HSF) (Homo sapiens, UniProt Q00613); conditions: 2-30 mM; cited from earlier work
heat shock transcription factor (HSF), sequence (Q00613 whole entry): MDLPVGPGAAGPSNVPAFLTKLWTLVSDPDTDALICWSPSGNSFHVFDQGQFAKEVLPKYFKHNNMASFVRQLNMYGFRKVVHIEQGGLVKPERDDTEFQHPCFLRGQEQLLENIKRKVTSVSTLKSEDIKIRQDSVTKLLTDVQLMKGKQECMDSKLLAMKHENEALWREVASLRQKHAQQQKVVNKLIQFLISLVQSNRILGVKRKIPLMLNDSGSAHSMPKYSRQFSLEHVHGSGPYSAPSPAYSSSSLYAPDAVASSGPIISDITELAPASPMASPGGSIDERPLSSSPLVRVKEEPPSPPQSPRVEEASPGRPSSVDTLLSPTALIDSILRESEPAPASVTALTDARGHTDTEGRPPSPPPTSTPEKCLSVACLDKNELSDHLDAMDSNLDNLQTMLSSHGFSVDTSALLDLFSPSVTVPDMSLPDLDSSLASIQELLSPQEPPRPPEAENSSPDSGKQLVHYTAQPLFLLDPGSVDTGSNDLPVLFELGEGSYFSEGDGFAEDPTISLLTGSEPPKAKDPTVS

[6] = tested on: heat shock response; conditions: cited from earlier work
[7] = temperature stress 37° C., control (None) 0.3
[8] = temperature stress 40° C., control (None) 4.6

| SMILES | increase of Hsp70 levels ([1]; 5 μM) | increase of heat shock response with respect to the control [2] | increase of heat shock response compared with the control [2] | Luciferase activity [2, 7] | Luciferase activity [2, 8] | time after UV-B irradiation at which erythema appeared in the treated area [3] | stability [4] | increase of Hsp70 levels ([1]; 50 μM) | heat shock gene transcription [5] | temperature of maximum induction activity [6] |
| --- | --- | --- | --- | --- | --- | --- | --- | --- | --- | --- |
| CCC(=O)OC(=O)c1ccccc1O [Propanoyl salicylate] | up to 89% | 33% | 107% | 0.4 arbitrary units × 10^−5 | 9.5 arbitrary units × 10^−5 | 7 to 10 h | compatible with its use in cosmetic and pharmaceutical formulations | – | – | – |
| CCCCCCCC(=O)OC(=O)c1ccccc1O [Octanoyl salicylate, n-octanoyl salicylate] | – | – | – | 0.5 arbitrary units × 10^−5 | 6.3 arbitrary units × 10^−5 | – | – | up to 130% | – | – |
| O=C([O-])c1ccccc1O.[Na+] [sodium salicylate] | – | – | – | – | – | – | – | – | does not induce heat shock gene transcription | – |
| OC(CO/N=C(\Cl)c1cccnc1)CN1CCCCC1 (stereo not shown) [Bimoclomol, reference compound] | – | 33% | 20% | 0.4 arbitrary units × 10^−5 | 5.5 arbitrary units × 10^−5 | – | – | – | – | 43 °C |
